Results reported in PubChem BioAssay (NCI).
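Step 1: Grow cells in 96-well plates. Step 2: Expose to compound for 48 hours at 5 concentrations. Step 3: Interpolate endpoints linearly; if unreached, use highest concentration. GI50 marks 50% less growth. TGI marks complete inhibition of growth.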

Columns and labels:
Test in all cases: NCI anticancer screen, dose series, 48 h
HCT-116 colon = system: HCT-116 colon
DU-145 prostate = system: DU-145 prostate
BT-549 breast = system: BT-549 breast
OVCAR-5 ovarian = system: OVCAR-5 ovarian
OVCAR-4 ovarian = system: OVCAR-4 ovarian
UACC-257 melanoma = system: UACC-257 melanoma
MDA-MB-435 = system: MDA-MB-435
T-47D breast = system: T-47D breast
SNB-75 CNS = system: SNB-75 CNS
TK-10 renal = system: TK-10 renal
UO-31 renal = system: UO-31 renal
KM12 colon = system: KM12 colon
HOP-62 NSCLC = system: HOP-62 NSCLC
MALME-3M melanoma = system: MALME-3M melanoma
SK-MEL-2 melanoma = system: SK-MEL-2 melanoma
LOX IMVI melanoma = system: LOX IMVI melanoma
RPMI-8226 leukemia = system: RPMI-8226 leukemia
EKVX NSCLC = system: EKVX NSCLC
SN12C renal = system: SN12C renal
HOP-92 NSCLC = system: HOP-92 NSCLC
HCT-15 colon = system: HCT-15 colon
SF-539 CNS = system: SF-539 CNS
HCC-2998 colon = system: HCC-2998 colon
PC-3 prostate = system: PC-3 prostate
HL-60(TB) leukemia = system: HL-60(TB) leukemia
NCI-H460 lung = system: NCI-H460 lung
OVCAR-3 ovarian = system: OVCAR-3 ovarian
HS 578T breast = system: HS 578T breast
CCRF-CEM leukemia = system: CCRF-CEM leukemia
NCI/ADR-RES ovarian = system: NCI/ADR-RES ovarian
786-0 renal = system: 786-0 renal
ACHN renal = system: ACHN renal
M14 melanoma = system: M14 melanoma
RXF 393 renal = system: RXF 393 renal
OVCAR-8 ovarian = system: OVCAR-8 ovarian
SK-MEL-5 melanoma = system: SK-MEL-5 melanoma
HT29 colon = system: HT29 colon
CAKI-1 renal = system: CAKI-1 renal
MOLT-4 leukemia = system: MOLT-4 leukemia
NCI-H522 lung = system: NCI-H522 lung
NCI-H226 lung = system: NCI-H226 lung
A498 renal = system: A498 renal
SF-268 CNS = system: SF-268 CNS
UACC-62 melanoma = system: UACC-62 melanoma
K-562 leukemia = system: K-562 leukemia
MCF7 breast = system: MCF7 breast
U251 CNS = system: U251 CNS
SF-295 CNS = system: SF-295 CNS
IGROV1 ovarian = system: IGROV1 ovarian
SK-OV-3 ovarian = system: SK-OV-3 ovarian
A549 NSCLC = system: A549 NSCLC
SR leukemia = system: SR leukemia
SK-MEL-28 melanoma = system: SK-MEL-28 melanoma
SW-620 colon = system: SW-620 colon
SNB-19 CNS = system: SNB-19 CNS
COLO 205 colon = system: COLO 205 colon
MDA-MB-231 breast = system: MDA-MB-231 breast

CN(C)CCCOc1c2ccccc2nc2c1oc1ccc(Cl)cc12
GI50 (HCT-116 colon): 1.87 µM
TGI (HCT-116 colon): 13 µM
GI50 (DU-145 prostate): 4.14 µM
TGI (DU-145 prostate): 14.5 µM
GI50 (BT-549 breast): 5.17 µM
TGI (BT-549 breast): 18.5 µM
GI50 (OVCAR-5 ovarian): 4.04 µM
TGI (OVCAR-5 ovarian): 15.9 µM
GI50 (OVCAR-4 ovarian): 2.42 µM
TGI (OVCAR-4 ovarian): 7.45 µM
GI50 (UACC-257 melanoma): 3.44 µM
TGI (UACC-257 melanoma): 13.3 µM
GI50 (MDA-MB-435): 3.44 µM
TGI (MDA-MB-435): 12.7 µM
GI50 (T-47D breast): 4.92 µM
TGI (T-47D breast): 20.7 µM
GI50 (SNB-75 CNS): 2.6 µM
TGI (SNB-75 CNS): 11.8 µM
GI50 (TK-10 renal): 5.16 µM
TGI (TK-10 renal): 17.1 µM
GI50 (UO-31 renal): 2.32 µM
TGI (UO-31 renal): 12.1 µM
GI50 (KM12 colon): 4.18 µM
TGI (KM12 colon): 18.5 µM
GI50 (HOP-62 NSCLC): 3.66 µM
TGI (HOP-62 NSCLC): 15.5 µM
GI50 (MALME-3M melanoma): 2.77 µM
TGI (MALME-3M melanoma): 9.64 µM
GI50 (SK-MEL-2 melanoma): 6.35 µM
TGI (SK-MEL-2 melanoma): 18.9 µM
GI50 (LOX IMVI melanoma): 1.48 µM
TGI (LOX IMVI melanoma): 3.08 µM
GI50 (RPMI-8226 leukemia): 2.7 µM
TGI (RPMI-8226 leukemia): 7.56 µM
GI50 (EKVX NSCLC): 3.68 µM
TGI (EKVX NSCLC): 14.7 µM
GI50 (SN12C renal): 3.01 µM
TGI (SN12C renal): 14.1 µM
GI50 (HOP-92 NSCLC): 1.75 µM
TGI (HOP-92 NSCLC): 8.01 µM
GI50 (HCT-15 colon): 3.07 µM
TGI (HCT-15 colon): 12.5 µM
GI50 (SF-539 CNS): 3.24 µM
TGI (SF-539 CNS): 13 µM
GI50 (HCC-2998 colon): 3.12 µM
TGI (HCC-2998 colon): 13.9 µM
GI50 (PC-3 prostate): 3.16 µM
TGI (PC-3 prostate): 12.3 µM
GI50 (HL-60(TB) leukemia): 3.13 µM
TGI (HL-60(TB) leukemia): 14.1 µM
GI50 (NCI-H460 lung): 3.06 µM
TGI (NCI-H460 lung): 11.6 µM
GI50 (OVCAR-3 ovarian): 5.2 µM
TGI (OVCAR-3 ovarian): 17.5 µM
GI50 (HS 578T breast): 3.76 µM
TGI (HS 578T breast): 19.7 µM
GI50 (CCRF-CEM leukemia): 4.12 µM
TGI (CCRF-CEM leukemia): 46.1 µM
GI50 (NCI/ADR-RES ovarian): 1.94 µM
TGI (NCI/ADR-RES ovarian): 10.2 µM
GI50 (786-0 renal): 3.32 µM
TGI (786-0 renal): 15.3 µM
GI50 (ACHN renal): 2.2 µM
TGI (ACHN renal): 11.5 µM
GI50 (M14 melanoma): 3.04 µM
TGI (M14 melanoma): 11 µM
GI50 (RXF 393 renal): 2.58 µM
TGI (RXF 393 renal): 8.7 µM
GI50 (OVCAR-8 ovarian): 3.28 µM
TGI (OVCAR-8 ovarian): 14.2 µM
GI50 (SK-MEL-5 melanoma): 9.28 µM
TGI (SK-MEL-5 melanoma): 21.3 µM
GI50 (HT29 colon): 2.56 µM
TGI (HT29 colon): 11.7 µM
GI50 (CAKI-1 renal): 2.63 µM
TGI (CAKI-1 renal): 11.3 µM
GI50 (MOLT-4 leukemia): 3.19 µM
TGI (MOLT-4 leukemia): 14 µM
GI50 (NCI-H522 lung): 2.76 µM
TGI (NCI-H522 lung): 11.1 µM
GI50 (NCI-H226 lung): 3.02 µM
TGI (NCI-H226 lung): 9.95 µM
GI50 (A498 renal): 10.4 µM
TGI (A498 renal): 23.6 µM
GI50 (SF-268 CNS): 3.8 µM
TGI (SF-268 CNS): 17 µM
GI50 (UACC-62 melanoma): 5.11 µM
TGI (UACC-62 melanoma): 19.1 µM
GI50 (K-562 leukemia): 2.79 µM
TGI (K-562 leukemia): > 100 µM
GI50 (MCF7 breast): 2.88 µM
TGI (MCF7 breast): 10.3 µM
GI50 (U251 CNS): 3.36 µM
TGI (U251 CNS): 13.7 µM
GI50 (SF-295 CNS): 3.82 µM
TGI (SF-295 CNS): 15 µM
GI50 (IGROV1 ovarian): 3.61 µM
TGI (IGROV1 ovarian): 13 µM
GI50 (SK-OV-3 ovarian): 4.6 µM
TGI (SK-OV-3 ovarian): 16.7 µM
GI50 (A549 NSCLC): 2.8 µM
TGI (A549 NSCLC): 10.6 µM
GI50 (SR leukemia): 3.02 µM
TGI (SR leukemia): 12.2 µM
GI50 (SK-MEL-28 melanoma): 4.56 µM
TGI (SK-MEL-28 melanoma): 16.5 µM
GI50 (SW-620 colon): 1.92 µM
TGI (SW-620 colon): 10.1 µM
GI50 (SNB-19 CNS): 3.93 µM
TGI (SNB-19 CNS): 16.3 µM
GI50 (COLO 205 colon): 2.49 µM
TGI (COLO 205 colon): 9.76 µM
GI50 (MDA-MB-231 breast): 2.64 µM
TGI (MDA-MB-231 breast): 10.5 µM
